According to the supplement of paper PMC11451515:

Columns and labels:
Conditions in all cases: 48 h
[1] = test system: SEM cells; experiment: AUC of viability dose-response curve (% viability x log10 dose units); higher = less sensitive
In short: (§1)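 Leukemia cells adapted to each medium (500 or 1000 cells/well, 1536-well plates) were exposed to library compounds in DMSO for 48 h at 37°C at 11 threefold doses, 47 μM to 0.79 nM. Luminescence by CellTiter-Glo One was normalised per plate to DMSO and cell-free wells, then fitted with a four-parameter log-logistic curve on log10 dose. Curves above full viability were scaled and quality-control failures removed before area under the curve was integrated by trapezoidal rule.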

[2] = test system: P12-Ichikawa; experiment: as above
In short: as §1

[3] = test system: NOMO1; experiment: as above
In short: as §1

[4] = test system: SEM cells; experiment: cell viability relative to DMSO control; higher = less cytotoxic
In short: (§2)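 Viability values are per-plate percentages of DMSO wells, with background from cell-free wells. Library compounds in DMSO were pin-dosed, in an 11-point threefold series from 47 μM to 0.79 nM, onto NOMO1 or SEM (500 cells/well) or P12-Ichikawa (1000 cells/well) leukemia cells in 1536-well plates (5 μl). Those cells had been adapted for at least four passages in each medium, and CellTiter-Glo One luminescence was read after 48 h at 37°C.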

[5] = test system: P12-Ichikawa; experiment: as above
In short: as §2

[6] = test system: NOMO1; experiment: as above
In short: as §2

[7] = RPMI 5 mM glucose + 10% dialyzed FBS
[8] = HPLM + 10% dialyzed FBS, 0.000781 µM
[9] = HPLM + 10% dialyzed FBS, 0.00234 µM
[10] = HPLM + 10% dialyzed FBS, 0.00702 µM
[11] = HPLM + 10% dialyzed FBS, 0.0211 µM
[12] = HPLM + 10% dialyzed FBS, 0.0632 µM
[13] = HPLM + 10% dialyzed FBS, 0.19 µM
[14] = HPLM + 10% dialyzed FBS, 0.569 µM
[15] = HPLM + 10% dialyzed FBS, 1.71 µM
[16] = HPLM + 10% dialyzed FBS, 5.12 µM
[17] = HPLM + 10% dialyzed FBS, 15.4 µM
[18] = HPLM + 10% dialyzed FBS, 46.1 µM
[19] = RPMI 5 mM glucose + 10% FBS, 0.000781 µM
[20] = RPMI 5 mM glucose + 10% FBS, 0.00234 µM
[21] = RPMI 5 mM glucose + 10% FBS, 0.00702 µM
[22] = RPMI 5 mM glucose + 10% FBS, 0.0211 µM
[23] = RPMI 5 mM glucose + 10% FBS, 0.0632 µM
[24] = RPMI 5 mM glucose + 10% FBS, 0.19 µM
[25] = RPMI 5 mM glucose + 10% FBS, 0.569 µM
[26] = RPMI 5 mM glucose + 10% FBS, 1.71 µM
[27] = RPMI 5 mM glucose + 10% FBS, 5.12 µM
[28] = RPMI 5 mM glucose + 10% FBS, 15.4 µM
[29] = RPMI 5 mM glucose + 10% FBS, 46.1 µM
[30] = RPMI 5 mM glucose + 10% dialyzed FBS, 0.000781 µM
[31] = RPMI 5 mM glucose + 10% dialyzed FBS, 0.00234 µM
[32] = RPMI 5 mM glucose + 10% dialyzed FBS, 0.00702 µM
[33] = RPMI 5 mM glucose + 10% dialyzed FBS, 0.0211 µM
[34] = RPMI 5 mM glucose + 10% dialyzed FBS, 0.0632 µM
[35] = RPMI 5 mM glucose + 10% dialyzed FBS, 0.19 µM
[36] = RPMI 5 mM glucose + 10% dialyzed FBS, 0.569 µM
[37] = RPMI 5 mM glucose + 10% dialyzed FBS, 1.71 µM
[38] = RPMI 5 mM glucose + 10% dialyzed FBS, 5.12 µM
[39] = RPMI 5 mM glucose + 10% dialyzed FBS, 15.4 µM
[40] = RPMI 5 mM glucose + 10% dialyzed FBS, 46.1 µM

For `COc1cc2ncn(-c3cc(OCc4ccccc4[S+](C)(=O)[O-])c(C#N)s3)c2cc1OC`, the “AUC of viability dose-response curve” value ([1]; HPLM + 10% dialyzed FBS) was 457, the “AUC of viability dose-response curve” value ([1]; RPMI 5 mM glucose + 10% FBS) was 461 and the “AUC of viability dose-response curve” value [1, 7] was 470. For the same compound, the “AUC of viability dose-response curve” value ([2]; HPLM + 10% dialyzed FBS) was 450, the “AUC of viability dose-response curve” value ([2]; RPMI 5 mM glucose + 10% FBS) was 450 and the “AUC of viability dose-response curve” value [2, 7] was 428. For the same compound, the “AUC of viability dose-response curve” value ([3]; HPLM + 10% dialyzed FBS) was 443, the “AUC of viability dose-response curve” value ([3]; RPMI 5 mM glucose + 10% FBS) was 435 and the “AUC of viability dose-response curve” value [3, 7] was 457. It also gave a cell viability [4, 8] of 102%, a cell viability [4, 9] of 102% and a cell viability [4, 10] of 90.9%. For the same compound, the cell viability [4, 11] was 105%, the cell viability [4, 12] was 95.1% and the cell viability [4, 13] was 98.3%. For the same compound, the cell viability [4, 14] was 98.3%, the cell viability [4, 15] was 103% and the cell viability [4, 16] was 78.5%. For the same compound, the cell viability [4, 17] was 95.7%, the cell viability [4, 18] was 82.4% and the cell viability [4, 19] was 114%. It also gave a cell viability [4, 20] of 110%, a cell viability [4, 21] of 100% and a cell viability [4, 22] of 124%. The cell viability [4, 23] was 121%, the cell viability [4, 24] was 110% and the cell viability [4, 25] was 108%. The cell viability [4, 26] was 107%, the cell viability [4, 27] was 94.4% and the cell viability [4, 28] was 122%. The cell viability [4, 29] was 93.4%, the cell viability [4, 30] was 92.4% and the cell viability [4, 31] was 107%. For the same compound, the cell viability [4, 32] was 89.1%, the cell viability [4, 33] was 103% and the cell viability [4, 34] was 98.9%. It also gave a cell viability [4, 35] of 110%, a cell viability [4, 36] of 112% and a cell viability [4, 37] of 101%. The cell viability [4, 38] was 106%, the cell viability [4, 39] was 98.7% and the cell viability [4, 40] was 78.9%. The cell viability [5, 8] was 101%, the cell viability [5, 9] was 100% and the cell viability [5, 10] was 93.8%. The cell viability [5, 11] was 94%, the cell viability [5, 12] was 102% and the cell viability [5, 13] was 95.2%. The cell viability [5, 14] was 96.7%, the cell viability [5, 15] was 94.1% and the cell viability [5, 16] was 84.5%. For the same compound, the cell viability [5, 17] was 92%, the cell viability [5, 18] was 77.5% and the cell viability [5, 19] was 96.3%. For the same compound, the cell viability [5, 20] was 99%, the cell viability [5, 21] was 96.8% and the cell viability [5, 22] was 97.8%. It also gave a cell viability [5, 23] of 100%, a cell viability [5, 24] of 95.3% and a cell viability [5, 25] of 94.4%. It also gave a cell viability [5, 26] of 89.7%, a cell viability [5, 27] of 88.7% and a cell viability [5, 28] of 91.3%. The cell viability [5, 29] was 87.6%, the cell viability [5, 30] was 90.1% and the cell viability [5, 31] was 92.3%. The cell viability [5, 32] was 87.7%, the cell viability [5, 33] was 94.9% and the cell viability [5, 34] was 94.8%. The cell viability [5, 35] was 98%, the cell viability [5, 36] was 95.4% and the cell viability [5, 37] was 92.5%. The cell viability [5, 38] was 82.7%, the cell viability [5, 39] was 80% and the cell viability [5, 40] was 73.6%. The cell viability [6, 8] was 101%, the cell viability [6, 9] was 91% and the cell viability [6, 10] was 105%. It also gave a cell viability [6, 11] of 101%, a cell viability [6, 12] of 84% and a cell viability [6, 13] of 108%. The cell viability [6, 14] was 92.8%, the cell viability [6, 15] was 95.8% and the cell viability [6, 16] was 82.7%. The cell viability [6, 17] was 81.2%, the cell viability [6, 18] was 68.9% and the cell viability [6, 19] was 90.9%. The cell viability [6, 20] was 89.9%, the cell viability [6, 21] was 97% and the cell viability [6, 22] was 84.6%. It also gave a cell viability [6, 23] of 99.7%, a cell viability [6, 24] of 97% and a cell viability [6, 25] of 103%. It also gave a cell viability [6, 26] of 88.8%, a cell viability [6, 27] of 82.1% and a cell viability [6, 28] of 90.4%. The cell viability [6, 29] was 73.8%, the cell viability [6, 30] was 107% and the cell viability [6, 31] was 98.6%. For the same compound, the cell viability [6, 32] was 100%, the cell viability [6, 33] was 100% and the cell viability [6, 34] was 90.8%. It also gave a cell viability [6, 35] of 98.7%, a cell viability [6, 36] of 95.3% and a cell viability [6, 37] of 101%. For the same compound, the cell viability [6, 38] was 89.4%, the cell viability [6, 39] was 94.8% and the cell viability [6, 40] was 62%.
